Measured values reported in patent US20240299387A1, “HETEROCYCLIC EGFR INHIBITORS FOR USE IN THE TREATMENT OF CANCER” (Blueprint Medicines Corporation, priority 2021, published 2024).

What was measured:
EGFR (L858R T790M C797S) = molecular target: T1, EGFR (L858R T790M C797S) (Homo sapiens, UniProt P00533, C797S/L858R/T790M); assay: Biochemical EGFR inhibition assay (Caliper mobility shift), EGFR LRTMCS mutant; settings: LRTMCS (PH) IC50 (nM) @ 1 mM ATP (Num)
T1 construct: purchased SignalChem E10-122VG
T1 sequence (P00533 25-1210 T790M/C797S/L858R): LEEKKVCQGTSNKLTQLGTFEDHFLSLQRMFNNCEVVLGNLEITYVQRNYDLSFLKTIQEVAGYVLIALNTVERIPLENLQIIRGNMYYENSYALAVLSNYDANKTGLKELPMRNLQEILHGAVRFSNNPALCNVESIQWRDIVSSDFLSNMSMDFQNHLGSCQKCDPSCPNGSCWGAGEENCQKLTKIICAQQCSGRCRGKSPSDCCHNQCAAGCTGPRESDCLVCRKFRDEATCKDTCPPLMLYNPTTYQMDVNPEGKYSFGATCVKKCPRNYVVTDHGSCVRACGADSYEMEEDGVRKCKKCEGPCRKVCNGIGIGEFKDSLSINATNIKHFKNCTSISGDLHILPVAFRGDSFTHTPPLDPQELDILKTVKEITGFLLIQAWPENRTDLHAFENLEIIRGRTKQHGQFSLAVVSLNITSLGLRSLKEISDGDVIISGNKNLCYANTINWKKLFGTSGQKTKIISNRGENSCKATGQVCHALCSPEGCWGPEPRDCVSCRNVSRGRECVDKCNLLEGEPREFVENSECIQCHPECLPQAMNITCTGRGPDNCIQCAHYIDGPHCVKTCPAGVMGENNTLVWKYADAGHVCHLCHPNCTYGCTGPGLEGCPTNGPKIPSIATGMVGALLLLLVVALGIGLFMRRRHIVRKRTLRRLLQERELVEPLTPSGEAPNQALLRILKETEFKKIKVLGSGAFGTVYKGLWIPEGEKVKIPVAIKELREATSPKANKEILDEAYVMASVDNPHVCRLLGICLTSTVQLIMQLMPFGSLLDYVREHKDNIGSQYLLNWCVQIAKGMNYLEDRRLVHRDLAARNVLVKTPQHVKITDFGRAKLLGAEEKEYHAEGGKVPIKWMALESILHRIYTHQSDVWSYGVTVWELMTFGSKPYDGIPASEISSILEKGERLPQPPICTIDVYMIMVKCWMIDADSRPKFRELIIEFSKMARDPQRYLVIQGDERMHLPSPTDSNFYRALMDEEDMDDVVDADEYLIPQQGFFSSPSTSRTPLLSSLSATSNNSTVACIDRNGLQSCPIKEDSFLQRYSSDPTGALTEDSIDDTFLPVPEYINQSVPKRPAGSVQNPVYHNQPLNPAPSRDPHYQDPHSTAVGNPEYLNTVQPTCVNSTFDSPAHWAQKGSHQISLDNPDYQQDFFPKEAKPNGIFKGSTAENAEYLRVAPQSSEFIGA
Outline: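 Each enzyme was allowed to phosphorylate 10–20% of its peptide at 25° C. before EDTA (35 mM) quench. Separated substrate and product peaks were measured by mobility shift, giving apparent IC50 values.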

[1] = molecular target: T2, EGFR L858R T790M in NCI-H1975 cell line (Homo sapiens, UniProt P00533, L858R/T790M); assay: NCI-H1975 pEGFR AlphaLISA assay; type: cell-based; settings: NCI-H1975 cells (EGFR L858R T790M), p-EGFR (Tyr1068), 4-5 hours incubation; read-out: Ext pEGFR H1975 GMean IC50 (nM) Protocol: @Pharmaron AlphaLISA (Num)
T2 construct: host or cells: NCI-H1975
T2 sequence (P00533 25-1210 T790M/L858R): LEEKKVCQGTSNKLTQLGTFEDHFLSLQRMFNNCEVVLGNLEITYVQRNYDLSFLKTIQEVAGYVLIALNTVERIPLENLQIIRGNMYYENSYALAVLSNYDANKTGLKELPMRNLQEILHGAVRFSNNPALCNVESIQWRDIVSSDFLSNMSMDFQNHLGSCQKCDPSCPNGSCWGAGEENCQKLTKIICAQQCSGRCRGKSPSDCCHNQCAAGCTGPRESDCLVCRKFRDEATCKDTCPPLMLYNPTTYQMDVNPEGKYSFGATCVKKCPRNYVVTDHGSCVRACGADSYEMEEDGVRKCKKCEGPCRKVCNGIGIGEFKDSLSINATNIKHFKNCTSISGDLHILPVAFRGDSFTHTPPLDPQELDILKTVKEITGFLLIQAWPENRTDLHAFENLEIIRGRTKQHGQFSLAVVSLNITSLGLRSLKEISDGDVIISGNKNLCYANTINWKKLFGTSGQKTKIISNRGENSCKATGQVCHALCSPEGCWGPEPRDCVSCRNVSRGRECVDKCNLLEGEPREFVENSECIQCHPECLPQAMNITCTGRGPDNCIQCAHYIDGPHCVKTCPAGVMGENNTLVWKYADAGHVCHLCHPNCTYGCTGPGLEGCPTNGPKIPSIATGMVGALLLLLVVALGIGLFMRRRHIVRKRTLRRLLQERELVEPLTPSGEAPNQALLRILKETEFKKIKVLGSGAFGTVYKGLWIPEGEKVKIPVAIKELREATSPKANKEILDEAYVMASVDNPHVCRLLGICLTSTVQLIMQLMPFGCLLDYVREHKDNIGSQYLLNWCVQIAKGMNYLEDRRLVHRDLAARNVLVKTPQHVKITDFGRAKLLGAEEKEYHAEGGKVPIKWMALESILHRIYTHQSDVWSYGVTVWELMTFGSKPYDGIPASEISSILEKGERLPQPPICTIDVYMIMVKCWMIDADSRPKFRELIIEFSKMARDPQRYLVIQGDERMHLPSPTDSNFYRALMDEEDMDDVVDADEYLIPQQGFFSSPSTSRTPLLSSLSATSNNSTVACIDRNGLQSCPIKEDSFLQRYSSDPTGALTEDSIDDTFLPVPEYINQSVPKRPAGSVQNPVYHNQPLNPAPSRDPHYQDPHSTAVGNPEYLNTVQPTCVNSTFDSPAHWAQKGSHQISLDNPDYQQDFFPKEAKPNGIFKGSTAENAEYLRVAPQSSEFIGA
Outline: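 Phospho-EGFR measured by AlphaLISA after overnight donor-bead incubation; IC50 from percent pEGFR inhibition versus log concentration.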

[2] = tested on: EGFR mutant NSCLC (EGFR M+); settings: NSCLC patients; average treatment time to resistance; cited from earlier work

| Structure (SMILES) | IC50 (EGFR (L858R T790M C797S)) | IC50 [1] | time of treatment until resistance is observed [2] |
| --- | --- | --- | --- |
| CO[C@H]1C[C@@H](NC(=O)c2ncc(C(C)C)c3cc(Nc4ccnc(N5CC[C@@H](O)[C@@](C)(F)C5)n4)ncc23)C1 [Example 73, 6-((2-((3S,4R)-3-fluoro-4-hydroxy-3-methylpiperidin-1-yl)pyrimidin-4-yl)amino)-4-isopropyl-N-((1s,3s)-3-methoxycyclobutyl)-2,7-naphthyridine-1-carboxamide] | < 15 nM | 20 to 30 nM | – |
| CO[C@H]1C[C@H](NC(=O)c2ncc(C(C)C)c3cc(Nc4ccnc(N5CC[C@@H](O)[C@@](C)(F)C5)n4)ncc23)C1 [Example 74, 6-((2-((3S,4R)-3-fluoro-4-hydroxy-3-methylpiperidin-1-yl)pyrimidin-4-yl)amino)-4-isopropyl-N-((1r,3r)-3-methoxycyclobutyl)-2,7-naphthyridine-1-carboxamide] | < 15 nM | 20 to 30 nM | – |
| CC(C)c1cnc(C(=O)NC2CC(F)(F)C2)c2cnc(Nc3ccnc(N4CC[C@@H](O)[C@@](C)(F)C4)n3)cc12 [Example 75, N-(3,3-difluorocyclobutyl)-6-((2-((3S,4R)-3-fluoro-4-hydroxy-3-methylpiperidin-1-yl)pyrimidin-4-yl)amino)-4-isopropyl-2,7-naphthyridine-1-carboxamide] | < 15 nM | 30 to 50 nM | – |
| CC(C)c1cnc(C(=O)NC2CS(=O)(=O)C2)c2cnc(Nc3ccnc(N4CC[C@@H](O)[C@@](C)(F)C4)n3)cc12 [Example 76, N-(1,1-dioxidothietan-3-yl)-6-((2-((3S,4R)-3-fluoro-4-hydroxy-3-methylpiperidin-1-yl)pyrimidin-4-yl)amino)-4-isopropyl-2,7-naphthyridine-1-carboxamide] | < 15 nM | 30 to 50 nM | – |
| CC(C)c1cnc(C(=O)NCCN(C)C)c2cnc(Nc3ccnc(N4CC[C@@H](O)[C@@](C)(F)C4)n3)cc12 [Example 77, N-(2-(dimethylamino)ethyl)-6-((2-((3S,4R)-3-fluoro-4-hydroxy-3-methylpiperidin-1-yl)pyrimidin-4-yl)amino)-4-isopropyl-2,7-naphthyridine-1-carboxamide] | < 15 nM | 30 to 50 nM | – |
| CC(C)c1cnc(C(=O)NC2CCOCC2)c2cnc(Nc3ccnc(N4CC[C@@H](O)[C@@](C)(F)C4)n3)cc12 [Example 78, 6-((2-((3S,4R)-3-fluoro-4-hydroxy-3-methylpiperidin-1-yl)pyrimidin-4-yl)amino)-4-isopropyl-N-(tetrahydro-2H-pyran-4-yl)-2,7-naphthyridine-1-carboxamide] | 15 to 20 nM | 30 to 50 nM | – |
| CC(C)c1cnc(C(=O)N[C@H]2C[C@H](O)C2)c2cnc(Nc3ccnc(N4CC[C@@H](O)[C@@](C)(F)C4)n3)cc12 [Example 79, 6-((2-((3S,4R)-3-fluoro-4-hydroxy-3-methylpiperidin-1-yl)pyrimidin-4-yl)amino)-N-((1r,3r)-3-hydroxycyclobutyl)-4-isopropyl-2,7-naphthyridine-1-carboxamide] | < 15 nM | 30 to 50 nM | – |
| CC(C)c1cnc(C(=O)NC2CN(CCF)C2)c2cnc(Nc3ccnc(N4CC[C@@H](O)[C@@](C)(F)C4)n3)cc12 [Example 80, 6-((2-((3S,4R)-3-fluoro-4-hydroxy-3-methylpiperidin-1-yl)pyrimidin-4-yl)amino)-N-(1-(2-fluoroethyl)azetidin-3-yl)-4-isopropyl-2,7-naphthyridine-1-carboxamide] | < 15 nM | 20 to 30 nM | – |
| CC(C)c1cnc(C(=O)N[C@H]2C[C@@H](C#N)C2)c2cnc(Nc3ccnc(N4CC[C@@H](O)[C@@](C)(F)C4)n3)cc12 [Example 81, N-((1r,3r)-3-cyanocyclobutyl)-6-((2-((3S,4R)-3-fluoro-4-hydroxy-3-methylpiperidin-1-yl)pyrimidin-4-yl)amino)-4-isopropyl-2,7-naphthyridine-1-carboxamide] | < 15 nM | 20 to 30 nM | – |
| CC(C)c1cnc(C(=O)N[C@H]2C[C@@](C)(O)C2)c2cnc(Nc3ccnc(N4CC[C@@H](O)[C@@](C)(F)C4)n3)cc12 [Example 83, 6-((2-((3S,4R)-3-fluoro-4-hydroxy-3-methylpiperidin-1-yl)pyrimidin-4-yl)amino)-N-((1s,3s)-3-hydroxy-3-methylcyclobutyl)-4-isopropyl-2,7-naphthyridine-1-carboxamide] | < 15 nM | 30 to 50 nM | – |
| CCO[C@H]1C[C@H](NC(=O)c2ncc(C(C)C)c3cc(Nc4ccnc(N5CC[C@@H](O)[C@@](C)(F)C5)n4)ncc23)C1 [Example 84, N-((1r,3r)-3-ethoxycyclobutyl)-6-((2-((3S,4R)-3-fluoro-4-hydroxy-3-methylpiperidin-1-yl)pyrimidin-4-yl)amino)-4-isopropyl-2,7-naphthyridine-1-carboxamide] | < 15 nM | 20 to 30 nM | – |
| CNc1ccc(C(C)C)c2cc(Nc3ccnc(N4CC[C@@H](O)[C@@](C)(F)C4)n3)ncc12 [Example 91, (3S,4R)-3-fluoro-1-(4-((5-isopropyl-8-(methylamino)isoquinolin-3-yl)amino)pyrimidin-2-yl)-3-methylpiperidin-4-ol] | < 15 nM | 20 to 30 nM | – |
| CNc1ncc(C(C)C)c2cc(Nc3ccnc(N4CC[C@@H](O)[C@@H](F)C4)n3)ncc12 [Example 92, (3S,4R)-3-fluoro-1-(4-((5-isopropyl-8-(methylamino)-2,7-naphthyridin-3-yl)amino)pyrimidin-2-yl)piperidin-4-ol] | 30 to 100 nM | > 50 nM | – |
| CC(C)c1cnc(N(C)C)c2cnc(Nc3ccnc(N4CC[C@@H](O)[C@@H](F)C4)n3)cc12 [Example 94, (3S,4R)-1-(4-((8-(dimethylamino)-5-isopropyl-2,7-naphthyridin-3-yl)amino)pyrimidin-2-yl)-3-fluoropiperidin-4-ol] | 30 to 100 nM | > 50 nM | – |
| CNc1nnc(C(C)C)c2cc(Nc3ccnc(N4CC[C@@H](O)[C@@H](F)C4)n3)ncc12 [Example 95] | > 100 nM | > 50 nM | – |
| C=CC(=O)Nc1cc(Nc2nccc(-c3cn(C)c4ccccc34)n2)c(OC)cc1N(C)CCN(C)C [osimertinib] | – | – | approximately 10 months |
